This assay has as its target Metabotropic glutamate receptor 5 (Rattus norvegicus) (UniProt P31424). The assay can be described thus: PubChem AID 588735. Conditions: HEK293 rat mGluR5, calcium fluorescence, at 10 µM, stronger effect = higher value.

Metabotropic glutamate receptor 5 (Rattus norvegicus), sequence (P31424 whole entry, looked up): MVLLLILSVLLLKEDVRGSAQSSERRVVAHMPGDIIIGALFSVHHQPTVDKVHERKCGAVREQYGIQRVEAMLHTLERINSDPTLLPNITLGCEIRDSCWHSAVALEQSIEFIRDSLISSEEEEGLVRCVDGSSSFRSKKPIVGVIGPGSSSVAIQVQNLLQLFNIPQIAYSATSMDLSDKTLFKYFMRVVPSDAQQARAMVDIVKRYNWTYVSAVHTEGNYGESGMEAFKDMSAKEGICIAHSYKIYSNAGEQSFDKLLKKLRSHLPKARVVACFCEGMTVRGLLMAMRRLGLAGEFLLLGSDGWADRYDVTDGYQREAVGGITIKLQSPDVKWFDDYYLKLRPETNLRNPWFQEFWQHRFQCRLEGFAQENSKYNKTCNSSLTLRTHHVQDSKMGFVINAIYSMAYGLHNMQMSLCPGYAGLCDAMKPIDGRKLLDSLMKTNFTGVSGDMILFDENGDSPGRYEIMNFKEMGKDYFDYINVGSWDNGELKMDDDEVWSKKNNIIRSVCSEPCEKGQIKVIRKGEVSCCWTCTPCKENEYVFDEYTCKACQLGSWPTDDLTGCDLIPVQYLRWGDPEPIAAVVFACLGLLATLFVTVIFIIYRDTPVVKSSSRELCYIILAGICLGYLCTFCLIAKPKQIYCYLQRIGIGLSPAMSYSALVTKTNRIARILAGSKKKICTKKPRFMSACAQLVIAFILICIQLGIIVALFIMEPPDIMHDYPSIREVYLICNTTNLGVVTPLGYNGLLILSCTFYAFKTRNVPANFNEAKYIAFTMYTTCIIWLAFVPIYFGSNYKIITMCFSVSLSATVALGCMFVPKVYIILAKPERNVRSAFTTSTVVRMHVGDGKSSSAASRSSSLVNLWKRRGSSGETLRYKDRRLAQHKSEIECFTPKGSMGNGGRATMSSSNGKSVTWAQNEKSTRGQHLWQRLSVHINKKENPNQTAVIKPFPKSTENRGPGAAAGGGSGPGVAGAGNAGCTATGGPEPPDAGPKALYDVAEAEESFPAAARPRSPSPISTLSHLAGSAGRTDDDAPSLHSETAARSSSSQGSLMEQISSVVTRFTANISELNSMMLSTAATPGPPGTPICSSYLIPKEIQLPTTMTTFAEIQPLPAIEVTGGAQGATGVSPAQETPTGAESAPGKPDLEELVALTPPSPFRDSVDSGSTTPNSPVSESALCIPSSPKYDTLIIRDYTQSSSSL

One may read the Emax as the size of the effect at its maximum, as opposed to the concentration needed. For the compound `C[C@@H](NC(=O)c1ccc(C#Cc2cccc(F)c2)cn1)C(C)(C)O`, the fold shift was 4.6. The Emax (glutamate fold shift, glutamate max response with compound) is 62%. Besides, for the setting “glutamate fold shift, glutamate min response (ago-PAM)”, the Emin is 45%.

The record behind these values is PubChem BioAssay AID588735 (Vanderbilt Specialized Chemistry Center, 2011).
